Source: ChEMBL document CHEMBL5465560, “Selectivity Literature for EUbOPEN Chemogenomic Library” (2024)
Values belong to the molecule of their own block, whether it stands above or below them.

Key:
[1] = target: Tyrosine-protein kinase receptor Tie-1 (Homo sapiens) (UniProt P35590); assay: Selectivity interaction (Ambit KINOMEscan and KiNATiv profiling in Jurkat cells) EUB0000090b TIE1; format: cell-based; details: at 1 µM
[2] = target: T1, Serine/threonine-protein kinase Nek8 (Homo sapiens) (UniProt Q86SG6); assay: Selectivity interaction (ActivX KiNativ screen (kinase selectivity in THP-1 cell lysates)) EUB0000639a NEK8; format: subcellular; details: lysate
T1 sequence (whole entry): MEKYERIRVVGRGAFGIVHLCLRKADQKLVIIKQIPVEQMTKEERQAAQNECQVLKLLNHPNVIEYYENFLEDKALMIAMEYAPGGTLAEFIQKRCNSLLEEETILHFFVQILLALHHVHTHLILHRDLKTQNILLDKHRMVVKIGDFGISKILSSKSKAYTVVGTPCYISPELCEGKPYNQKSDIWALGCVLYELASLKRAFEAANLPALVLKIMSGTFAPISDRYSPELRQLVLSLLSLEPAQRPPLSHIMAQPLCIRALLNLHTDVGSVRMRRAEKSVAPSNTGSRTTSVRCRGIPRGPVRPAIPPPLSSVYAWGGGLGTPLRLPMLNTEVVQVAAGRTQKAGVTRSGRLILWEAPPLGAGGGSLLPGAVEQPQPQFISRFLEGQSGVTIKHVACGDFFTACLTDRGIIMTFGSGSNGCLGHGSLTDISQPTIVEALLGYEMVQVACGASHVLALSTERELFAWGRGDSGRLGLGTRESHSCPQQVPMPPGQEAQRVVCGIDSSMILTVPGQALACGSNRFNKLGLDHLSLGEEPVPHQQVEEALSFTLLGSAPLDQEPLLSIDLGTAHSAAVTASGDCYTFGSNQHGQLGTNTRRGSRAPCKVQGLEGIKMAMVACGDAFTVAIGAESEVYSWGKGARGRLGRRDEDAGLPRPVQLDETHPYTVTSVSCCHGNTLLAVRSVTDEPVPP

[3] = target: Mitogen-activated protein kinase kinase kinase 20 (Homo sapiens) (UniProt Q9NYL2); assay: Selectivity interaction (LanthaScreen Eu Kinase Binding Assay) EUB0001632a MAP3K20; details: at 10 µM
Chain of Mitogen-activated protein kinase kinase kinase 20 (Homo sapiens) (Q9NYL2 2-800 limits assumed): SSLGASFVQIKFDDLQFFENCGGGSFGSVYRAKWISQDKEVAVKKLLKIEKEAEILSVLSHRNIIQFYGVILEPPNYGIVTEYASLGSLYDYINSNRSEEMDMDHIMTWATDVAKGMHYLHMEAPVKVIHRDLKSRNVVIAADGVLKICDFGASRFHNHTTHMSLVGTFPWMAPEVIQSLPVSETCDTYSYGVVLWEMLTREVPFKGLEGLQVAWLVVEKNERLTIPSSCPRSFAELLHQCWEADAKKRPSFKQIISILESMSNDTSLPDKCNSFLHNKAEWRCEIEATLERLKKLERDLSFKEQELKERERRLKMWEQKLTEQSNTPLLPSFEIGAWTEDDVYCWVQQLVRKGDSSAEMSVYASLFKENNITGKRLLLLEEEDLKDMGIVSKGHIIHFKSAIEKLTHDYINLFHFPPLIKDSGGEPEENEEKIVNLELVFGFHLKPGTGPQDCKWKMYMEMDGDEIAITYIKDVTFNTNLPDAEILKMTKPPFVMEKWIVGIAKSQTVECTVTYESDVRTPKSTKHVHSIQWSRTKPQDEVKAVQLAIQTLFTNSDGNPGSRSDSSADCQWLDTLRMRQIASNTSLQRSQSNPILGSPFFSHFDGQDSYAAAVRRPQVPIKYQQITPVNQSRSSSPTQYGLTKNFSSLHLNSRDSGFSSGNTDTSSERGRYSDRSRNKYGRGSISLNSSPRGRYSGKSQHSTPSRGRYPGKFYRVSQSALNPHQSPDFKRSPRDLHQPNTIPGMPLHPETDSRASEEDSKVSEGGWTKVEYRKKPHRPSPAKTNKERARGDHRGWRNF

[4] = target: T2, NUAK family SNF1-like kinase 1 (Homo sapiens) (UniProt O60285); assay: Selectivity interaction (KinomeScan (DiscoverX)) EUB0000595a NUAK1; details: at 10 µM
T2 sequence (whole entry): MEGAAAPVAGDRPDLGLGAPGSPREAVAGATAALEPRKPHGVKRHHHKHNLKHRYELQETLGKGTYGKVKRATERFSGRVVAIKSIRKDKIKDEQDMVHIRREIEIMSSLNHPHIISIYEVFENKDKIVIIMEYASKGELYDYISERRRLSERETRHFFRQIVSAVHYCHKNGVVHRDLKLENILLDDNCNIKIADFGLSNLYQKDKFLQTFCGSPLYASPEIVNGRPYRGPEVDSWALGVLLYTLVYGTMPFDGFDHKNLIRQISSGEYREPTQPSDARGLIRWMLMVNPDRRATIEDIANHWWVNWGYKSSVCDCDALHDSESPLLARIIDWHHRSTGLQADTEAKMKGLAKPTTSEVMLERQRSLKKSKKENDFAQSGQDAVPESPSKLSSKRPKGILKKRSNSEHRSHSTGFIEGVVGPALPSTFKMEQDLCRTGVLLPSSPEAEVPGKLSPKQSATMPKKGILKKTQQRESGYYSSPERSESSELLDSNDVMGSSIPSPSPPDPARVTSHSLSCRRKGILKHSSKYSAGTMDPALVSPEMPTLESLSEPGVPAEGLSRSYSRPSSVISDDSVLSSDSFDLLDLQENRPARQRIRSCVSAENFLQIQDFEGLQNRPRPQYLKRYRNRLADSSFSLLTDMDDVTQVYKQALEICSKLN

[5] = target: Tyrosine-protein kinase JAK1 (Homo sapiens, UniProt P23458); assay: Selectivity interaction (SelectScreen Kinase Profiling (Thermo Fisher Scientific)) EUB0001558a JAK1; details: at 1 µM
Chain of Tyrosine-protein kinase JAK1 (P23458 whole entry): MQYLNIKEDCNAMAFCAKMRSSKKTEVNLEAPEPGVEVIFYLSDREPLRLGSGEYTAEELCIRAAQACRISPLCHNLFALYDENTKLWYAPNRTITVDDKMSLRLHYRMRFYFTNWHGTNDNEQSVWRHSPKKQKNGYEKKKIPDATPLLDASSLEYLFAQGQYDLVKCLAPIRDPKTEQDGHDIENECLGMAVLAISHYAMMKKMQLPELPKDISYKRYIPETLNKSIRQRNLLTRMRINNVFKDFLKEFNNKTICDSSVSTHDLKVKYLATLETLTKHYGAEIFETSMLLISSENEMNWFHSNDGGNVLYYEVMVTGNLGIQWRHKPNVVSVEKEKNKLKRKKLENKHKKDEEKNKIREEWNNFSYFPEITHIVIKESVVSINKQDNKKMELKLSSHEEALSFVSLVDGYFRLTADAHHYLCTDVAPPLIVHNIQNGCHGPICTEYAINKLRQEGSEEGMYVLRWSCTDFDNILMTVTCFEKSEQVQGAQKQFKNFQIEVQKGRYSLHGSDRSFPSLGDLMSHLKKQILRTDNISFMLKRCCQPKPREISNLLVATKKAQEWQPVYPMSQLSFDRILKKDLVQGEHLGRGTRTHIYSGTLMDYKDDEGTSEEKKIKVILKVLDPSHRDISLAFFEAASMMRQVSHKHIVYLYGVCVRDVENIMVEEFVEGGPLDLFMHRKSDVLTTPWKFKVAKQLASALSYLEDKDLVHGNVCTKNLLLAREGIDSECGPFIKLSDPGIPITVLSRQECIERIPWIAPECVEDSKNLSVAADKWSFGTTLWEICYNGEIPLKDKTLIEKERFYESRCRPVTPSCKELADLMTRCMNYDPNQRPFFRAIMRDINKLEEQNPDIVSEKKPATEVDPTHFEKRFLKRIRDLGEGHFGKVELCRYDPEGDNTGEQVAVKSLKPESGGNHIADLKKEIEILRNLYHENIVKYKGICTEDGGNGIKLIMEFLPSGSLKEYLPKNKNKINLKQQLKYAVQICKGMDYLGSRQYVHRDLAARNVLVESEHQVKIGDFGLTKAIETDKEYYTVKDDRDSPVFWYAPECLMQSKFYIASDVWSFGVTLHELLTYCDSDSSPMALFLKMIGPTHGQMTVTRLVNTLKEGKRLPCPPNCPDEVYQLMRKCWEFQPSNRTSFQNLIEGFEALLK

Chain of Tyrosine-protein kinase receptor Tie-1 (Homo sapiens) (P35590 whole entry): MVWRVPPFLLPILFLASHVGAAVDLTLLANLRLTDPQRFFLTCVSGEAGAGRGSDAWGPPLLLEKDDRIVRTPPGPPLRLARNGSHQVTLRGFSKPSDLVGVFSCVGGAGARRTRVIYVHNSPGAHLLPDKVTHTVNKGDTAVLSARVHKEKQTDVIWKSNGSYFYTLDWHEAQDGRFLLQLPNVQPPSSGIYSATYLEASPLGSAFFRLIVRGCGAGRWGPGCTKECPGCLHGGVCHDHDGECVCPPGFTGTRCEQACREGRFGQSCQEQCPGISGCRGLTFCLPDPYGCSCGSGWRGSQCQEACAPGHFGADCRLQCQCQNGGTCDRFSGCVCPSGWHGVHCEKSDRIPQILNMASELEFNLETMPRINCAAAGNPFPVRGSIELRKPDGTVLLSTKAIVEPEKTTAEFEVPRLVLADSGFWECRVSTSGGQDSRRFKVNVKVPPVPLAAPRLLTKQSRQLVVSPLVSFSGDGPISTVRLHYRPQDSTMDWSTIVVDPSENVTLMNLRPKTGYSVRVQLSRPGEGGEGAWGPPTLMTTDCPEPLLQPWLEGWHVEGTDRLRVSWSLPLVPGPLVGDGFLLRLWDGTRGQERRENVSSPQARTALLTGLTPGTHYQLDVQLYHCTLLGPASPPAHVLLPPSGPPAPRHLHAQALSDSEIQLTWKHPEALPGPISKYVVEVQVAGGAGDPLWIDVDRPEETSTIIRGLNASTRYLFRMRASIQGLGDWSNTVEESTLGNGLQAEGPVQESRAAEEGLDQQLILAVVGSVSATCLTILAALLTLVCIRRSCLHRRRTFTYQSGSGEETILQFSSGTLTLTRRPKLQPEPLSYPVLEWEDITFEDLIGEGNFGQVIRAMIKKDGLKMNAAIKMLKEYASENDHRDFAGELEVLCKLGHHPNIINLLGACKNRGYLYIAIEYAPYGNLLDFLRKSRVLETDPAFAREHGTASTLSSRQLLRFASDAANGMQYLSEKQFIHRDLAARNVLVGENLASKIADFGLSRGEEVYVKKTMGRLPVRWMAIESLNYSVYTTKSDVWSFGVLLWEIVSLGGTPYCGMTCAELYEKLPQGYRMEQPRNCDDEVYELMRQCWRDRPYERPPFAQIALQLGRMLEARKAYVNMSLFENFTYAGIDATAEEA

SMILES: CN(C)C/C=C/C(=O)Nc1ccc(C(=O)N2CCCC(Nc3ncc(Cl)c(-c4c[nH]c5ccccc45)n3)C2)cc1 (centres undefined)
% of control [1]: 96%

% of inhibition ([2]; at 0.01 µM): -12.6%
% of inhibition ([2]; at 0.04 µM): 9.8%
% of inhibition ([2]; at 0.2 µM): -2.6%
% of inhibition ([2]; at 1 µM): 3.4%
% of inhibition ([2]; at 5 µM): -20.5%
SMILES: CC[C@@H]1[C@H](F)C(=O)N[C@@H]1COc1nccc2cc(C(N)=O)c(OC)cc12 [ZIMLOVISERTIB]

% of inhibition [3]: -9.9%
SMILES: Cn1cc(-n2cnc3c(NCc4nc5cc(Cl)c(Cl)cc5[nH]4)nc(N4CCOCC4)nc32)cn1

SMILES: COCC(=O)NC/C=C/c1ccc2ncnc(Nc3ccc(Oc4ccc(C)nc4)c(C)c3)c2c1 [CP-724714]
% of control [4]: 100%

SMILES: CC(C)(O)[C@H](F)CN1Cc2cc(NC(=O)c3cnn4cccnc34)c(N3CCOCC3)cc2C1=O
% of inhibition [5]: 83.5%
